Where a name gives a salt, the structure may show the parent alone.
Assays:
MV-4-11 cells = experiment: Antiproliferation activity on MV-4-11 cells (CellTiter-Glo, 6 days); assay type: cell-based; details: Homo sapiens, MV4-11, 144 h, incubated for 6 days
Text: Experimental purpose: to detect the antiproliferation activity of the compound to be tested on MV-4-11 cells.
(§1) Experimental materials: IMDM culture medium, fetal bovine serum, penicillin/streptomycin antibiotics purchased from Wisent. CellTiter-Glo (chemiluminescent cell viability assay reagent) reagents purchased from Promega. MV-4-11 cell line was purchased from Nanjing Cobioer Co., Ltd. Nivo Multi-Marker Analyzer (PerkinElmer).
Experimental method: MV-4-11 cells were planted in a white 96-well plate, 80 μL of cell suspension per well, which contained 6000 MV-4-11 cells. The cell plate was placed in a carbon dioxide incubator for overnight culture.
The compounds to be tested were diluted 5-fold with a pipet until the 8th concentration, i.e., diluted from 2 mM to 25.6 nM, double duplicate well experiment was set. 78 μL of the culture medium was added to an intermediate plate, and then 2 μL per well of the serially diluted compounds were transferred to the corresponding positions on the intermediate plate, after mixing, 20 μL per well was transferred to the cell plate. The cell plate was incubated in a carbon dioxide incubator for 6 days. Another cell plate was prepared and the signal value on the day of dosing was read as the maximum value (Max value in the equation below) to participate in the data analysis. 25 μL of the chemiluminescent cell viability assay reagent was added to each well of this cell plate, which was incubated at room temperature for 10 minutes to stabilize the luminescence signal. The multi-label analyzer was used for reading.
(§2) Data analysis: the equation (Sample-Min)/(Max-Min)*100% was used to convert the original data into the inhibition rate, the IC50 value can be obtained by curve fitting of four-parameters (“log(inhibitor) vs. response—Variable slope” mode in GraphPad Prism)).

NCI-H1417 cells = experiment: Antiproliferation activity on NCI-H1417 cells (CellTiter-Glo, 10 days); assay type: cell-based, human; details: Homo sapiens, NCI-H1417, 240 h, incubated for 10 days
Procedure: Experimental purpose: to detect the antiproliferation activity of the compounds on NCI-H1417 cells.
Experimental materials: RPMI 1640 culture medium, fetal bovine serum, Promega CellTiter-Glo reagent. NCI-H1417 cell line purchased from ATCC. Envision multi-label reader (PerkinElmer).
Experimental method: the compounds were dissolved to 10 mM, then the compounds were diluted 5 times with DMSO in a compound plate, the compounds were diluted 3-fold with Bravo from a starting concentration of 2 mM to the 10th concentration, 250 nL of the solutions were transferred to the upper and lower duplicate wells on a blank 384 cell plate by Echo transfer plate, cell suspension of per well/1000 cells/50 μL was added to the transferred 250 nL DMSO/compound, the compounds were diluted 200-fold, i.e., the initial action concentration was 10 μM. The cell plate was placed in a carbon dioxide incubator and incubated for 10 days. 25 μL of Promega CellTiter-Glo reagent was added to each well on the cell plate and was shaken at room temperature for 10 minutes to stabilize the luminescence signal. Readings were performed by PerkinElmer Envision multi-label analyzer.
Data analysis: the equation (Max-Ratio)/(Max-Min)*100% was used to convert the original data into the inhibition rate, the value of IC50 can be obtained by curve fitting of four-parameters (the 205 mode in XLFITS, iDBS).

human LSD1 = human LSD1 (Homo sapiens, UniProt O60341); experiment: In vitro enzyme activity screening against LSD1 (HRP/Amplex Red fluorescence coupling enzyme method); assay type: biochemical; details: human LSD1, histone H3K4me peptide substrate 20 μM
Procedure: The purpose of this test was to detect the in vitro inhibitory activity of the compounds against LSD1. The enzyme used in this test was human LSD1, the standard substrate was histone H3K4me peptide (20 μM), the fluorescence coupling enzyme method was used to determine the activity of the compound by combining horseradish peroxidase (HRP) and fluorescent reagent Amplex Red to detect the H2O2 generation as a result of the reaction of LSD1. Compounds were tested in 10-dose IC50 mode with a 3-fold serial dilution starting at 10 μM. The enzyme and […] to start the reaction. Fluorescence detector: Envision, excitation wavelength: Ex/Em=530/590 […]

HL60 cells = experiment: Antiproliferation activity on HL60 cells (CellTiter-Glo, 6 days); assay type: cell-based; details: Homo sapiens, HL-60, 144 h, incubated for 6 days
Text: Experimental purpose: to detect the antiproliferation activity of the compound to be tested on HL60 cells.
as §1, with “RPMI-1640” for “IMDM”, “HL60” for “MV-4-11”, “line” for “line was”, “multi-label reader” for “Multi-Marker Analyzer”
Experimental method: HL60 cells were planted in a white 384-well plate, 40 μL of cell suspension per well, 600 HL60 cells were contained therein. The cell plate was placed in a carbon dioxide incubator for overnight culture. The compounds to be tested were diluted 5-fold with a pipet until the 10th concentration, i.e., diluted from 2 mM to 1.024 nM, double duplicate well experiment was set. 78 μL of the culture medium was added to an intermediate plate, and then 2 μL per well of the serially diluted compounds were transferred to the corresponding positions on the intermediate plate, after mixing, 10 μL per well was transferred to the cell plate. The cell plate was incubated in a carbon dioxide incubator for 6 days. Another cell plate was prepared and the signal value on the day of dosing was read as the maximum value (Max value in the equation below) to participate in the data analysis. 20 μL of chemiluminescent cell viability assay reagent was added to each well of this cell plate, which was incubated at room temperature for 10 minutes to stabilize the luminescence signal. The multi-label reader was used for reading.
as §2

[1] = In vivo pharmacokinetics in CD-1 mice; details: male, CD-1, mouse, plasma, male CD-1 mice
Procedure: CD-1 mice (male, 7-9 weeks old, Shanghai Slac)
The rodent pharmacokinetic characteristics after intravenous injection and oral administration of the compounds were tested by standard protocols, in the experiment, the candidate compounds were formulated into clear solutions and administrated to mice via a single intravenous injection and oral administration. The vehicle for intravenous injection and oral administration was a mixed solution of 10% of dimethyl sulfoxide and 90% of 10% hydroxypropyl β cyclodextrin. This project used four male CD-1 mice, two mice were administered intravenously, with a dose of 1 mg/kg, and plasma samples were collected at 0 hour (before administration) and 0.0833, 0.25, 0.5, 1, 2, 4, 8, 24 hours after administration. The other two mice were orally administered by gavage, with a dose of 2 mg/kg, plasma samples were collected at 0 hour (before administration) and 0.25, 0.5, 1, 2, 4, 8, 24 hours after administration, whole blood samples were collected within 24 hours, which were centrifuged at 3000 g for 15 minutes, and the supernatants were separated to obtain plasma samples, 4 times volume of acetonitrile solutions containing internal standard were added to precipitate the protein, the mixtures were centrifuged to obtain the supernatants, the supernatants were added with water of equal volume and centrifuged again to take the supernatant for injection, and the blood drug concentration was quantitatively analyzed by the LC-MS/MS analysis method, and pharmacokinetic parameters were calculated, such as max concentration (Cmax), clearance (CL), half-life (T1/2), volumes of distribution (Vdss), the area under the plasma concentration-time curve (AUC0-last), bioavailability (F) etc.

| IC50 (MV-4-11 cells) [nM] | IC50 (NCI-H1417 cells) [nM] | IC50 (human LSD1) [nM] | IC50 (HL60 cells) [nM] | half-life ([1]; iv, 1 mg/kg, IV 1 mg/kg, read-out: Half-life T1/2 (IV) (converted)) [min] | clearance ([1]; iv, 1 mg/kg, study doses 1 mg/kg intravenous, 2 mg/kg oral, read-out: Clearance CL) [mL/min/kg] | Vd ([1]; iv, 1 mg/kg, study doses 1 mg/kg intravenous, 2 mg/kg oral, read-out: Volumes of distribution Vdss) [L/kg] | Cmax ([1]; study doses 1 mg/kg intravenous, 2 mg/kg oral, route not given, read-out: Max concentration Cmax) [nM] | AUC(0-t) ([1]; po, 2 mg/kg, PO 2 mg/kg, read-out: The area under the plasma concentration-time curve AUC0-last PO) [µM·h] | bioavailability ([1]; po, 2 mg/kg, oral 2 mg/kg vs intravenous 1 mg/kg, read-out: Bioavailability F) [%] | SMILES |
| --- | --- | --- | --- | --- | --- | --- | --- | --- | --- | --- |
| 0.46 | 1.12 | 92.2 | 1.17 | – | – | – | – | – | – | N#Cc1ccc(CN2CCC3(CC2)CC(N[C@@H]2C[C@H]2c2ccccc2)CO3)cc1 (stereo partly shown) [Hydrochloride of the compound 21] |
| 33.1 | 91.4 | 1140 | 337 | – | – | – | – | – | – | O=C(O)C1(CN2CCC3(CC2)CC(N[C@@H]2C[C@H]2c2ccccc2)CO3)CCC1 (stereo partly shown) [Hydrochloride of the compound 30] |
| 1.9 | 3.97 | 1160 | 0.55 | – | – | – | – | – | – | O=C(O)CC1(N2CCC3(CC2)CC(N[C@@H]2C[C@H]2c2ccccc2)CO3)CNC1 (stereo partly shown) [Hydrochloride of the compound 32] |
| 1.37 | 4.38 | 38.4 | 1.92 | 83.4 | 25.3 | 2.09 | 1150 | 2.14 | 58.3 | NC1(C(=O)N2CCC3(CC2)CC(N[C@@H]2C[C@H]2c2ccccc2)CO3)CC1 (stereo partly shown) [Hydrochloride of the compound 34] |
